According to article PMC8050608 (The Korean Journal of Physiology & Pharmacology : …, 2021):
Like-named read-outs stand apart in the source and are kept apart here.

How the values were obtained:
ORAI1 [1] = target: T1, ORAI1 (Homo sapiens, UniProt Q96D31); format: cell-based; details: HEK-293T, read-out: % inhibition at 100 μM
ORAI1 [2] = target: T1, ORAI1; format: cell-based; details: HEK-293T, read-out: % inhibition at 100 μM; remark: listed apart in the source

T1 sequence (Q13586 23-685): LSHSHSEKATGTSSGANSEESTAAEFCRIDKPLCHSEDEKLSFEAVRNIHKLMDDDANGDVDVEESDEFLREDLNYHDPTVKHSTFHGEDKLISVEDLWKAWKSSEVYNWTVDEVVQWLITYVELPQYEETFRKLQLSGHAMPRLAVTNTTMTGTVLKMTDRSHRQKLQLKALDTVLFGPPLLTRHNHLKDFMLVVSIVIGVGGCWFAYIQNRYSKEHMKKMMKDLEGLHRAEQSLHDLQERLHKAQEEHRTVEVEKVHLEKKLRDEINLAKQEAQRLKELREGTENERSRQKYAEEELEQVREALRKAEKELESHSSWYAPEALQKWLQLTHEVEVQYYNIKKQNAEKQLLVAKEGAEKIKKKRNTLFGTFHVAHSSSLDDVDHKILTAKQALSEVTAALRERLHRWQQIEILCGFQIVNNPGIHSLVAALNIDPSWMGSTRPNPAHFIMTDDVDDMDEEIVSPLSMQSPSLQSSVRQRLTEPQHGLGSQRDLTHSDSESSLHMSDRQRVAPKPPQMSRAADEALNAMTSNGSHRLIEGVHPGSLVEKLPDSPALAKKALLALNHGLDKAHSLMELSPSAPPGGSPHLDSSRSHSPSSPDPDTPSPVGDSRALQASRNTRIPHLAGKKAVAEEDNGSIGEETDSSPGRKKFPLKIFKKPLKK
T1 sequence (Q96D31 whole entry): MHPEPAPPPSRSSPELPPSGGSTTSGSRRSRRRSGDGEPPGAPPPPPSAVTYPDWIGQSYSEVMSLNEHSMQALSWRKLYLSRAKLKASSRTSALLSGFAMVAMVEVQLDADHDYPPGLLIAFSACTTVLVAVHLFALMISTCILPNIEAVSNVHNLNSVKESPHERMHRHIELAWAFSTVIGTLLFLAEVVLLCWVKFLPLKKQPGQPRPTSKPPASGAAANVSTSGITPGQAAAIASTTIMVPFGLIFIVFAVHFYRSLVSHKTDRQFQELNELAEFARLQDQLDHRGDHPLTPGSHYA

Row | inhibition at 100 µM (ORAI1 [1]) | inhibition at 100 µM (ORAI1 [2]) | Structure (SMILES)
1 | 29.7% | – | COc1ccc([C@H]2OC[C@H]3[C@@H]2CO[C@@H]3c2cc(OC)c(OC)c(OC)c2)cc1OC [magnolin]
2 | – | 24.7% | COc1ccc([C@H]2OC[C@H]3[C@@H]2CO[C@@H]3c2ccc(OC)c(OC)c2)cc1OC [eudesmin]
